Among the data in ChEMBL document CHEMBL1154854, “Synthesis and antioxidant properties of enone core based dendrimers with carbazole as surface group” (Eur J Med Chem, 2010) are IC50 and Activity values, retold here.

Molecules are shown by their SMILES. Converted amounts (≈) assume the structure as drawn. The source made the active and inactive calls. The rule behind the calls is not given here.

In assay [1] the test system is Radical scavenging activity. As to the kind of experiment: Antioxidant activity assessed as DPPH radical scavenging activity after 30 mins by spectrometric assay method. The class given is functional.
Assay [2] concerns Radical scavenging activity. The experiment in a line: Antioxidant activity assessed as DPPH radical scavenging activity at 20 to 1000 ug/mL after 30 mins by spectrometric assay method. The class given is functional. Background: DPPH is a stable violet radical that fades when it is reduced.

For the compound `O=C1/C(=C/c2ccc(OCc3cc(OCc4cc(OCc5ccc(-n6c7ccccc7c7ccccc76)cc5)cc(OCc5ccc(-n6c7ccccc7c7ccccc76)cc5)c4)cc(OCc4cc(OCc5ccc(-n6c7ccccc7c7ccccc76)cc5)cc(OCc5ccc(-n6c7ccccc7c7ccccc76)cc5)c4)c3)cc2)CCC/C1=C\c1ccc(OCc2cc(OCc3cc(OCc4ccc(-n5c6ccccc6c6ccccc65)cc4)cc(OCc4ccc(-n5c6ccccc6c6ccccc65)cc4)c3)cc(OCc3cc(OCc4ccc(-n5c6ccccc6c6ccccc65)cc4)cc(OCc4ccc(-n5c6ccccc6c6ccccc65)cc4)c3)c2)cc1`, in assay [1], the IC50 came out at 48 µg/mL (≈ 15.6 µM). For the same compound, the result in assay [2] was Active. With `O=C1/C(=C/c2ccc(OCc3cc(OCc4ccc(-n5c6ccccc6c6ccccc65)cc4)cc(OCc4ccc(-n5c6ccccc6c6ccccc65)cc4)c3)cc2)CCC/C1=C\c1ccc(OCc2cc(OCc3ccc(-n4c5ccccc5c5ccccc54)cc3)cc(OCc3ccc(-n4c5ccccc5c5ccccc54)cc3)c2)cc1`, the Activity result in assay [1] is “Dose-dependent effect”. On to `Cc1c(C)c2c(c(C)c1O)CC[C@@](C)(CCC[C@H](C)CCC[C@H](C)CCCC(C)C)O2` [ALPHA-TOCOPHEROL], for which the IC50 in assay [1] turned out to be 25 µg/mL (≈ 58 µM). Still for that read-out and setting: under `O=C1O[C@H]([C@@H](O)CO)C(O)=C1O` [ASCORBIC ACID] stands 48 µg/mL (≈ 273 µM); under `COc1ccc(O)c(C(C)(C)C)c1.COc1ccc(O)cc1C(C)(C)C` [BUTYLATED HYDROXYANISOLE], 29 µg/mL.

By IC50 is commonly meant the point on the concentration scale where inhibition reaches its midpoint.
